Results on 18 molecules are retold here after PubChem BioAssay AID200 (DTP/NCI, 2004).

The test system of the experiment is B6C3F1 mice, B16 melanoma ip, median survival T/C. The experiment in a line: NCI In Vivo Anticancer Drug Screen. Data for tumor model B16 Melanoma (intraperitoneal) in B6C3F1 mice. Particulars: endpoint: median survival time, higher = longer survival. The essentials:
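Mice bearing transplanted tumor were dosed with compound or vehicle, and survival was recorded. Activity is expressed as the treated-group measurement (T) divided by the vehicle control measurement (C).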

Setting [1] is: dose: 100.0 mg/kg/injection, schedule: Q01DX009 (ip), vehicle: Klucel (hydroxypropylcellulose) (HPC).
[2] abbreviates: dose: 200.0 mg/kg/injection, schedule: Q01DX009 (ip), vehicle: Klucel (hydroxypropylcellulose) (HPC).
Setting [3] is: dose: 400.0 mg/kg/injection, schedule: Q01DX009 (ip), vehicle: Klucel (hydroxypropylcellulose) (HPC).
The mark [4] stands for this setting: dose: 50.0 mg/kg/injection, schedule: Q01DX009 (ip), vehicle: Klucel (hydroxypropylcellulose) (HPC).
[5] abbreviates: dose: 100.0 mg/kg/injection, schedule: Q01DX009 (ip), vehicle: saline.
[6] abbreviates: dose: 3.12 mg/kg/injection, schedule: Q01DX009 (ip), vehicle: saline with Tween-80.
[7] abbreviates: dose: 6.25 mg/kg/injection, schedule: Q01DX009 (ip), vehicle: saline with Tween-80.
Where [8] appears, read: dose: 12.5 mg/kg/injection, schedule: Q01DX009 (ip), vehicle: saline with Tween-80.
The mark [9] stands for this setting: dose: 25.0 mg/kg/injection, schedule: Q01DX009 (ip), vehicle: saline with Tween-80.
Setting [10] is: dose: 50.0 mg/kg/injection, schedule: Q01DX009 (ip), vehicle: saline with Tween-80.
Setting [11] is: dose: 25.0 mg/kg/injection, schedule: Q01DX009 (ip), vehicle: Klucel (hydroxypropylcellulose) (HPC).

Several values for one entry are separate records, joined by “and”; a condition that tells them apart may be missing. Equal values may be shown once. Toxic doses and inconclusive results are not listed. Where a SMILES comes first, the peptide text is derived from it. [ ]: non-standard residue; d: D form. The star is where a group is joined. Cbz = O=C(OCc1ccccc1)*; Nva = CCC[CH](N)C(=O)O

`CO[C@H](/C(C)=C/C=C/C(C)=C/c1coc(C)n1)[C@H](C)[C@H]1C[C@@H](O)[C@@]2(C)O[C@H]2/C=C/[C@@H](C)[C@@H]2C[C@@H](CC(=O)O2)C[C@H]2O[C@@H]2C(=O)O1`: the T/C is, setting by setting: (dose: 0.01 mg/kg/injection, schedule: Q01DX009 (ip), vehicle: Klucel (hydroxypropylcellulose) (HPC)) 118 % of control and 98 % of control and 102 % of control; (dose: 0.01 mg/kg/injection, schedule: Q01DX009 (ip), vehicle: other) 94 % of control and 106 % of control; (dose: 0.03 mg/kg/injection, schedule: Q01DX009 (ip), vehicle: Klucel (hydroxypropylcellulose) (HPC)) 111 % of control and 112 % of control and 97 % of control; (dose: 0.03 mg/kg/injection, schedule: Q01DX009 (ip), vehicle: other) 110 % of control; (dose: 0.1 mg/kg/injection, schedule: Q01DX009 (sc), vehicle: Klucel (hydroxypropylcellulose) (HPC)) 154 % of control; (dose: 0.4 mg/kg/injection, schedule: Q01DX009 (sc), vehicle: Klucel (hydroxypropylcellulose) (HPC)) 117 % of control.

For `CCCC(NC(=O)OCc1ccccc1)C(=O)NC(CC(C)C)C(N)=O` (stereo not drawn) (Cbz-[Nva]-Leu-NH2; configuration not given here), the T/C runs as follows: under setting [1], 98 % of control; under setting [2], 94 % of control; under setting [3], 97 % of control.

`CCCC1CC(C(=O)NC(C(C)O)C2OC(SC)C(O)C(O)C2O)N(C)C1` (stereo not drawn): the T/C reads like this: under setting [4], 113 % of control; under setting [1], 95 % of control; under setting [2], 100 % of control; under setting [3], 89 % of control.

For `Nc1nc(Br)nc2c1ncn2C1CC(O)C(CO)O1` (stereo not drawn), the T/C reads like this: (dose: 7.5 mg/kg/injection, schedule: Q03HX009 (ip), vehicle: saline) 96 % of control; (dose: 15.0 mg/kg/injection, schedule: Q03HX009 (ip), vehicle: saline) 96 % of control; (dose: 30.0 mg/kg/injection, schedule: Q03HX009 (ip), vehicle: saline) 93 % of control; (dose: 60.0 mg/kg/injection, schedule: Q03HX009 (ip), vehicle: saline) 101 % of control.

For `CSCCC(NC(=O)c1ccccc1)C(=O)O` (stereo not drawn), the T/C under setting [5] was 93 % of control.

As for `Nc1ccc(S(=O)(=O)N/N=C/c2ccccc2[N+](=O)[O-])cc1`, the T/C was 95 % of control under setting [6]; 95 % of control under setting [7]; 96 % of control under setting [8]; 101 % of control under setting [9]; 104 % of control under setting [10].

`CCN(C)N=Nc1ccc(C(N)=O)cc1`: the T/C was 117 % of control and 95 % of control (dose: 6.25 mg/kg/injection, schedule: Q01DX009 (ip), vehicle: Klucel (hydroxypropylcellulose) (HPC)); 104 % of control and 106 % of control (dose: 12.5 mg/kg/injection, schedule: Q01DX009 (ip), vehicle: Klucel (hydroxypropylcellulose) (HPC)); 95 % of control and 101 % of control under setting [11]; 110 % of control and 102 % of control under setting [4].

Turning to `CNc1c(NC)n(C)c(=O)n(C)c1=O`, the T/C reads like this: under setting [5], 92 % of control; (dose: 200.0 mg/kg/injection, schedule: Q01DX009 (ip), vehicle: saline) 100 % of control; (dose: 400.0 mg/kg/injection, schedule: Q01DX009 (ip), vehicle: saline) 96 % of control.

Turning to `COc1ccc(C[C@H](N)C(=O)NC2C(CO)OC(n3cnc4c(N(C)C)ncnc43)C2O)cc1` (stereo partly drawn), the T/C is, setting by setting: (dose: 5.0 mg/kg/injection, schedule: Q01DX009 (ip), vehicle: saline) 103 % of control and 105 % of control; (dose: 10.0 mg/kg/injection, schedule: Q01DX009 (ip), vehicle: saline) 114 % of control and 106 % of control; (dose: 20.0 mg/kg/injection, schedule: Q01DX009 (ip), vehicle: saline) 112 % of control and 116 % of control; (dose: 40.0 mg/kg/injection, schedule: Q01DX009 (ip), vehicle: saline) 118 % of control and 122 % of control.

Consider `CCC(C)C(=O)O[C@H]1C(=O)O[C@@H]2C[C@H]3C(C)=CC(=O)[C@@H](O)[C@]3(C)[C@H]3[C@@H](O)[C@H](O)[C@@]4(C)OC[C@]32[C@@H]14` (stereo partly drawn), for which the T/C (dose: 1.0 mg/kg/injection, schedule: Q01DX009 (ip), vehicle: saline + alcohol) is 160 % of control.

Turning to `CCC(=O)[O][Bi]([c]1ccccc1)[c]1ccccc1`, under setting [11], the T/C is 92 % of control.

Turning to `CCN(CC)CC(=O)O[C@]1(CC)C(=O)OCc2c1cc1n(c2=O)Cc2cc3ccccc3nc2-1`, the T/C is 108 % of control (dose: 1.0 mg/kg/injection, schedule: Q01DX009 (ip), vehicle: water); 121 % of control (dose: 2.0 mg/kg/injection, schedule: Q01DX009 (ip), vehicle: water); 152 % of control (dose: 4.8 mg/kg/injection, schedule: Q01DX009 (ip), vehicle: water); 166 % of control (dose: 8.0 mg/kg/injection, schedule: Q01DX009 (ip), vehicle: water).

For `c1ccc2c(NCCCCCCNc3c4ccccc4nc4ccccc34)c3ccccc3nc2c1`, the T/C by setting is: (dose: 0.62 mg/kg/injection, schedule: Q01DX009 (ip), vehicle: Klucel (hydroxypropylcellulose) (HPC)) 116 % of control; (dose: 1.25 mg/kg/injection, schedule: Q01DX009 (ip), vehicle: water) 111 % of control and 116 % of control; (dose: 1.58 mg/kg/injection, schedule: Q01DX009 (ip), vehicle: Klucel (hydroxypropylcellulose) (HPC)) 154 % of control; (dose: 2.37 mg/kg/injection, schedule: Q01DX009 (ip), vehicle: Klucel (hydroxypropylcellulose) (HPC)) 179 % of control; (dose: 2.5 mg/kg/injection, schedule: Q01DX009 (ip), vehicle: Klucel (hydroxypropylcellulose) (HPC)) 151 % of control; (dose: 2.5 mg/kg/injection, schedule: Q01DX009 (ip), vehicle: water) 112 % of control and 122 % of control. The T/C by setting is: (dose: 5.0 mg/kg/injection, schedule: Q01DX009 (ip), vehicle: Klucel (hydroxypropylcellulose) (HPC)) 189 % of control; (dose: 5.0 mg/kg/injection, schedule: Q01DX009 (ip), vehicle: water) 123 % of control; (dose: 5.33 mg/kg/injection, schedule: Q01DX009 (ip), vehicle: Klucel (hydroxypropylcellulose) (HPC)) 213 % of control; (dose: 8.0 mg/kg/injection, schedule: Q01DX009 (ip), vehicle: Klucel (hydroxypropylcellulose) (HPC)) 199 % of control; (dose: 10.0 mg/kg/injection, schedule: Q01DX009 (ip), vehicle: Klucel (hydroxypropylcellulose) (HPC)) 200 % of control; (dose: 10.0 mg/kg/injection, schedule: Q01DX009 (ip), vehicle: water) 153 % of control. Moreover, the T/C reads like this: (dose: 12.0 mg/kg/injection, schedule: Q01DX009 (ip), vehicle: Klucel (hydroxypropylcellulose) (HPC)) 190 % of control; (dose: 20.0 mg/kg/injection, schedule: Q01DX009 (ip), vehicle: Klucel (hydroxypropylcellulose) (HPC)) 206 % of control; (dose: 20.0 mg/kg/injection, schedule: Q01DX009 (ip), vehicle: water) 162 % of control.

For the molecule `S=C(N/N=C1/CCCC/C1=N/NC(=S)N1CCOCC1)N1CCOCC1`, the T/C is, setting by setting: (dose: 1.56 mg/kg/injection, schedule: Q01DX009 (ip), vehicle: saline with Tween-80) 124 % of control; under setting [6], 116 % of control; under setting [7], 119 % of control.

With `Nc1ncnc2c1ncn2C1OC(CO)CC1O` (stereo not drawn), the T/C is 121 % of control (dose: 37.5 mg/kg/injection, schedule: Q01DX009 (ip), vehicle: Klucel (hydroxypropylcellulose) (HPC)) and 123 % of control (dose: 75.0 mg/kg/injection, schedule: Q01DX009 (ip), vehicle: Klucel (hydroxypropylcellulose) (HPC)).

In the case of `CC(=O)Nc1ccc(O)c(O)c1`, the T/C is, setting by setting: under setting [8], 109 % of control and 112 % of control; under setting [9], 114 % of control and 117 % of control; under setting [10], 104 % of control and 105 % of control; (dose: 100.0 mg/kg/injection, schedule: Q01DX009 (ip), vehicle: saline with Tween-80) 113 % of control and 101 % of control; (dose: 200.0 mg/kg/injection, schedule: Q01DX009 (ip), vehicle: saline with Tween-80) 113 % of control and 106 % of control; (dose: 400.0 mg/kg/injection, schedule: Q01DX009 (ip), vehicle: saline with Tween-80) 122 % of control and 106 % of control.

On to `O=C(Nc1ccc([N+](=O)[O-])cc1)Nc1nccs1`, for which the T/C is 111 % of control and 120 % of control (dose: 12.5 mg/kg/injection, schedule: Q01DX009 (ip), vehicle: distilled water + Tween-80); 111 % of control (dose: 25.0 mg/kg/injection, schedule: Q01DX009 (ip), vehicle: distilled water + Tween-80); 105 % of control (dose: 100.0 mg/kg/injection, schedule: Q01DX009 (ip), vehicle: distilled water + Tween-80).

Consider `CC1=C(C(N)=O)C(c2ccccc2)NC(=S)N1` (stereo not drawn), for which the T/C was 106 % of control under setting [11], 105 % of control under setting [4], 100 % of control under setting [1] and 117 % of control under setting [2].
